In article PMC10764104, “Discovery of Molecular Glue Degraders via Isogenic Morphological Profiling” (ACS Chemical Biology, 2023):

Target: T1, recombinant DDB1-CRBN (Homo sapiens, UniProt Q96SW2)
T1 construct: His; made in house; host or cells: High Five insect cells (baculovirus made and propagated in SF9 cells)
Assay: Fluorescence polarization-based competition assay for CRBN binding
Conditions: 200 nM CRBN-DDB1, 20 nM pomalidomide-fluorescein tracer 16, triplicates; read-out: FP_CRBN_binding: CRBN binding affinity, EC50

**Q.** Which EC50 does the source give for `CN(Cc1ncc(C2CC2)o1)S(=O)(=O)Oc1ccc(Nc2ccc3c(c2)C(=O)N(C2CCC(=O)NC2=O)C3=O)cc1` (stereo not shown) [FL2-14] here?
**A.** 0.991 µM
